Reference: US7605165B2, “Phenylalanine derivatives” (Ajinomoto Co., Inc., priority 2002, dated 2009)

Legend:
[1] = biological target: T1, integrin α4β1 (Homo sapiens, UniProt P05556+P13612); assay: Assessment of VCAM-1/α4β1 binding antagonist activity (Jurkat cells binding to VCAM-1); format: cell-based; conditions: Jurkat human T cells binding to recombinant human VCAM-1; read-out: integrin VCAM/α4 binding antagonistic activity (IC50) α4β1
T1 construct: cell strain Jurkat (ATCC TIB-152) of human T cells, known to express integrin α4β1; endogenous in cells; host or cells: Jurkat (ATCC TIB-152), human T cells
T1 sequence (P05556 21-798, one chain of several): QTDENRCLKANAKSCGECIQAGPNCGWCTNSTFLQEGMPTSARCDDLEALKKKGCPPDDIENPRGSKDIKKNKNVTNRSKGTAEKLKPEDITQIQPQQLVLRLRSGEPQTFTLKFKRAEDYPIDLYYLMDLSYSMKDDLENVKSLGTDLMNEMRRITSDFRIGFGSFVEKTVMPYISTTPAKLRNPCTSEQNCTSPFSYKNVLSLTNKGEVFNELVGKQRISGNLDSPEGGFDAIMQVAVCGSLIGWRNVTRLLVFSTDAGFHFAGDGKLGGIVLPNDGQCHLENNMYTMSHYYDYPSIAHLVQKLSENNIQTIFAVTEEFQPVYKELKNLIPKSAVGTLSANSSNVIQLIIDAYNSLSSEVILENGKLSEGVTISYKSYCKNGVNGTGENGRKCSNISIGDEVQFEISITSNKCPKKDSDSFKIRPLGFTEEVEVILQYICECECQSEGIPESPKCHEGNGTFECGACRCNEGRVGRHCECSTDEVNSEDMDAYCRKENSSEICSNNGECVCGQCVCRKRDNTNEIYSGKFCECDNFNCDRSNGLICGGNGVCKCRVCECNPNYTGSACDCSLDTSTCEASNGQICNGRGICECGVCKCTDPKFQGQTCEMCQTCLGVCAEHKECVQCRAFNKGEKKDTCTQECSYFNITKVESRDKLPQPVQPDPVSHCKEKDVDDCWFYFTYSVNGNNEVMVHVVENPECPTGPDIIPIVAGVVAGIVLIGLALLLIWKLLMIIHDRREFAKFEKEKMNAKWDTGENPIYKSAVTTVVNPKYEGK
Description: The capacity of a test substance antagonistic to the binding of cell strain Jurkat (ATCC TIB-152) of human T cells, known to express integrin α4β1, to VCAM-1 was determined.
(§1) 100 μl/well of a solution (500 ng/ml) of recombinant human VCAM-1 (R & D systems) solution diluted with buffer A (0.1 M NaHCO3, pH 9.6) was added to a micro titer plate having 96 wells (Nunc Maxisorp). After the incubation at 4° C. overnight, unbound VCAM-1 was removed by washing once with PBS. After completion of the washing, a buffer (buffer B) obtained by diluting Block Ace (Dainippon Pharmaceutical Co., Ltd.) with PBS to 1/4 concentration was added in an amount of 150 μl/well. After the incubation at room temperature for 1 hour, buffer B was removed and the plate was washed with PBS once.
Jurkat cells were washed with Dulbecco modified Eagle medium (SIGMA, hereinafter referred to as “DMEM”) twice and then incubated in DMEM containing 10 μg/ml of Calcein-AM (Wako Pure Chemical Industries, Ltd.) at 37° C. in dark place for 30 minutes to label with fluorescence. The cells were again suspended in a binding buffer (20 mM HEPES, DMEM containing 0.1% BSA).
(§2) 50 μl of a test substance of various concentrations obtained by the dilution with the binding buffer was added to the plate. Immediately thereafter, 50 μl (final volume: 100 μl/well) of the fluorescent Jurkat cells (4×10^6 cells/ml) were added thereto, and they were incubated in dark place at room temperature for 30 minutes. After the shaking on a plate shaker (IKA MTS-4) at 800 rpm for 30 seconds, the solution was immediately removed to remove the unbound cells. The fluorescence quantity of the bound cells remaining in the wells was determined with a fluorescent plate reader (Wallac 1420 ARVO multi-label counter) (filter excitation wave length: 485 nm, emission wave length: 535 nm). The fluorescent strength thus obtained is proportional to the number of Jurkat cells bound to VCAM-1 and remaining on the plate. The binding rate of each test material in various concentrations was determined while the fluorescent strength of the test material-free well was determined to be 100%.

[2] = biological target: T2, integrin α4β7 (Homo sapiens, UniProt P13612+P26010); assay: Assessment of VCAM-1/α4β7 binding antagonistic activity (RPMI-8866 cells binding to VCAM-1); format: cell-based; conditions: RPMI-8866 human B lymphoma cells binding to recombinant human VCAM-1, binding buffer with 4 mM MnCl2; read-out: integrin VCAM/α4 binding antagonistic activity (IC50) α4β7
T2 construct: lymphoma cell strain RPMI-8866 of human B cells, known to express integrin α4β7; endogenous in cells; host or cells: RPMI-8866, human B-cell lymphoma line
T2 sequence (P13612 34-1032): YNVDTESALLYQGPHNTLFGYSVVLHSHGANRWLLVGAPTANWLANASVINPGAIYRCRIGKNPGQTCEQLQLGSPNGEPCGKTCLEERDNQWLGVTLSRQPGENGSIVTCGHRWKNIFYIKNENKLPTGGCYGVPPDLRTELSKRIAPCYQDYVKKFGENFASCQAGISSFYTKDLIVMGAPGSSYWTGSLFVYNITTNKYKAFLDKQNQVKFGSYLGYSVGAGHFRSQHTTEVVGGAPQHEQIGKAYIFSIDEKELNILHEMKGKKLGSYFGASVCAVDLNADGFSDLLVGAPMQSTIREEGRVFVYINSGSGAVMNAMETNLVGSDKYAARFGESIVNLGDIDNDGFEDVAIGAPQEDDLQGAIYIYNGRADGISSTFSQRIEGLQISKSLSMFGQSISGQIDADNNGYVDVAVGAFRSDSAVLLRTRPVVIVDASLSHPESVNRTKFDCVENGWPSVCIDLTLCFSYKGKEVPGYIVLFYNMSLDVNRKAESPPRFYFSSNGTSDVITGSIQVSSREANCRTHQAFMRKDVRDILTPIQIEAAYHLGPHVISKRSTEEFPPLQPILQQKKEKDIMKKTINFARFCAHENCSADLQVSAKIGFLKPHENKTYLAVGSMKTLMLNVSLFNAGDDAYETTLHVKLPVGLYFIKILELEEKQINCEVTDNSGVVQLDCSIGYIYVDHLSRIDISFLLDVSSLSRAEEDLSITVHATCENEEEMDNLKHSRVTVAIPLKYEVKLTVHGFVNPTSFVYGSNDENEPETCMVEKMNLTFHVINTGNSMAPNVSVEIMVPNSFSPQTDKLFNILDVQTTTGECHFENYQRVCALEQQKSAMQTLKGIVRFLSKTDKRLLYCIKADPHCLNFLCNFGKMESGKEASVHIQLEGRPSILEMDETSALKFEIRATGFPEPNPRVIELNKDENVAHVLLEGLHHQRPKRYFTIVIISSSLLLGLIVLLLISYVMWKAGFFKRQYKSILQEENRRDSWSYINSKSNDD
T2 sequence (P26010 20-798): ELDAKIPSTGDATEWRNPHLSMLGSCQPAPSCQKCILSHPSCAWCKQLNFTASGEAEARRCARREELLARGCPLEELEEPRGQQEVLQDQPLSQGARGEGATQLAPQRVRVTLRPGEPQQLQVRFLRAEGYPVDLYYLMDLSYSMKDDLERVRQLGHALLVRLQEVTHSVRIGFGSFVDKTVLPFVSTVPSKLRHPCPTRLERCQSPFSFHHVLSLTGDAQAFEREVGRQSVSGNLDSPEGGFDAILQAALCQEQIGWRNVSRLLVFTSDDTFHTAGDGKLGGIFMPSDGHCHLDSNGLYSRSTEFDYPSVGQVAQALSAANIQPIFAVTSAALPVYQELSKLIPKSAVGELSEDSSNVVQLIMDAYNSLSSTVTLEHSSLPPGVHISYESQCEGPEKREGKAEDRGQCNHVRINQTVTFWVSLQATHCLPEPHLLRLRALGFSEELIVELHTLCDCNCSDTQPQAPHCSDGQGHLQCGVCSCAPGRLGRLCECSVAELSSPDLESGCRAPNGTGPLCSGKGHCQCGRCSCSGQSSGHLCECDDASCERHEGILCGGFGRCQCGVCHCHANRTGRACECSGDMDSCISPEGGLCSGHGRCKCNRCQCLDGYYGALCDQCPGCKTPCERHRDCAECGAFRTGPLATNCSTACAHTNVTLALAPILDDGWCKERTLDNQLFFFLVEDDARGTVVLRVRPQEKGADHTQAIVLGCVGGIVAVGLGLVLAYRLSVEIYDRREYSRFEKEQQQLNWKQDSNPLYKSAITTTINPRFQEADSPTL
Description: The capacity of a test substance antagonistic to the binding of lymphoma cell strain RPMI-8866 of human B cells, known to express integrin α4β7, to VCAM-1 was determined.
as §1
RPMI-8866 cells were washed with DMEM twice and incubated in Dulbecco modified Eagle medium containing 10 μg/ml of Calcein-AM (Wako Pure Chemical Industries, Ltd.) (SIGMA, hereinafter referred to as “DMEM”) in dark place at 37° C. for 30 minutes to label with fluorescence. The cells were again suspended in a binding buffer (20 mM HEPES, DMEM containing 0.1% BSA) containing 4 mM of MnCl2.
as §2, with “RPMI-8866” for “Jurkat”

Row | Compound | IC50 [1] [nM] | IC50 [2] [nM]
1 | O=C(N[C@@H](Cc1ccc(-n2c(=O)c3ccccc3n(Cc3c(F)cccc3F)c2=O)cc1)C(=O)O)c1c(Cl)cccc1Cl [Example 4] | 26 | 2.8
2 | N#CCn1c(=O)n(-c2ccc(C[C@H](NC(=O)c3c(Cl)cccc3Cl)C(=O)O)cc2)c(=O)c2ccccc21 [Example 6] | 80 | 3.3
3 | COc1ccc2nnn(-c3ccc(C[C@H](NC(=O)c4c(Cl)cccc4Cl)C(=O)O)cc3)c(=O)c2c1 [Reference Example 84] | 158 | 20
4 | CN(C)c1ccc2c(c1)c(=O)n(-c1ccc(C[C@H](NC(=O)c3c(Cl)cccc3Cl)C(=O)O)cc1)c(=O)n2C [Reference Example 108] | 57 | 3.3
5 | Cn1c(=O)n(-c2ccc(C[C@H](NC(=O)c3c(Cl)cccc3Cl)C(=O)O)cc2)c(=O)c2cc([N+](C)(C)C)ccc21 [Reference Example 112] | 37 | 1.1
6 | O=C(N[C@@H](Cc1ccc(-n2c(=O)c3ccccc3n(Cc3c(Cl)cccc3Cl)c2=O)cc1)C(=O)O)c1c(Cl)cccc1Cl [Reference Example 114] | 190 | 27
7 | Cc1cccc(Cl)c1C(=O)N[C@@H](Cc1ccc(-n2c(=O)c3ccccc3n(C)c2=O)cc1)C(=O)O [Reference Example 162] | 34 | 0.2
8 | Cn1c(=O)n(-c2ccc(C[C@H](NC(=O)c3c(Cl)cccc3Cl)C(=O)NO)cc2)c(=O)c2ccccc21 [Reference Example 211] | 250 | 20
9 | CCC(C)n1c(=O)n(-c2ccc(C[C@H](NC(=O)c3c(Cl)cccc3Cl)C(=O)O)cc2)c(=O)c2cc([N+](=O)[O-])ccc21 (stereo partly drawn) [compound 58] | 1070 | 31.6
10 | O=C(N[C@@H](Cc1ccc(-n2c(=O)[nH]c3c(Cl)ccc(Cl)c3c2=O)cc1)C(=O)O)c1c(Cl)cccc1Cl [compound 76] | 192 | 13
11 | O=C(N[C@@H](Cc1ccc(-n2c(=O)[nH]c3cc(F)ccc3c2=O)cc1)C(=O)O)c1c(Cl)cccc1Cl [compound 78] | 180 | 9.6
12 | O=C(N[C@@H](Cc1ccc(-n2c(=O)[nH]c3ncccc3c2=O)cc1)C(=O)O)c1c(Cl)cccc1Cl [compound 79] | 440 | 18
13 | O=C(N[C@@H](Cc1ccc(-n2nnc3ccc(F)cc3c2=O)cc1)C(=O)O)c1c(Cl)cccc1Cl [compound 85] | 230 | 25
14 | Cc1cccc2nnn(-c3ccc(C[C@H](NC(=O)c4c(Cl)cccc4Cl)C(=O)O)cc3)c(=O)c12 [compound 89] | 41 | 2.7
15 | CCOc1nc2ccc(F)cc2c(=O)n1-c1ccc(C[C@H](NC(=O)c2c(Cl)cccc2Cl)C(=O)O)cc1 [compound 92] | 1340 | 5.7
16 | CCOc1nc2cccc(C)c2c(=O)n1-c1ccc(C[C@H](NC(=O)c2c(Cl)cccc2Cl)C(=O)O)cc1 [compound 94] | 1150 | 6
17 | COc1ccc2c(c1)N(C)C(=O)N(c1ccc(C[C@H](NC(=O)c3c(Cl)cccc3Cl)C(=O)O)cc1)S2(=O)=O [compound 99] | 12 | 2
18 | CN1C(=O)N(c2ccc(C[C@H](NC(=O)c3c(Cl)cccc3Cl)C(=O)O)cc2)S(=O)(=O)c2ccc(C(F)(F)F)cc21 [compound 100] | 11 | 2.4
19 | COCC(=O)Nc1ccc2c(c1)c(=O)n(-c1ccc(C[C@H](NC(=O)c3c(Cl)cccc3Cl)C(=O)O)cc1)c(=O)n2C [compound 105] | 14 | 0.8
20 | Cn1c(=O)n(-c2ccc(C[C@H](NC(=O)c3c(Cl)cccc3Cl)C(=O)O)cc2)c(=O)c2cc(NC(=O)C(C)(C)C)ccc21 [compound 106] | 44 | 2.8
21 | CCN(C)c1ccc2c(c1)c(=O)n(-c1ccc(C[C@H](NC(=O)c3c(Cl)cccc3Cl)C(=O)O)cc1)c(=O)n2C [compound 109] | 56 | 4.3
22 | Cn1c(=O)n(-c2ccc(C[C@H](NC(=O)c3c(Cl)cccc3Cl)C(=O)O)cc2)c(=O)c2cc(N3CCCC3)ccc21 [compound 110] | 55 | 4.1
23 | O=C(N[C@@H](Cc1ccc(-n2c(=O)c3ccccc3n(Cc3ccc(Cl)c(Cl)c3)c2=O)cc1)C(=O)O)c1c(Cl)cccc1Cl [compound 115] | 760 | 36
24 | O=C(N[C@@H](Cc1ccc(-n2c(=O)c3ccccc3n(Cc3ccc(Cl)cc3Cl)c2=O)cc1)C(=O)O)c1c(Cl)cccc1Cl [compound 116] | 450 | 35
